From PMC7395048 (Archives of Toxicology, 2020)

Columns and labels:
[1] = In vitro incubations with pooled human liver microsomes
Experimental: The test concentrations were chosen to enable adequate analysis of Michaelis–Menten kinetics. After one-min pre-incubation of this solution at 37 °C, the reactions were initiated by addition of human liver microsomes giving a final concentration of 0.5 mg/ml microsomal protein and incubations were performed in a shaking water bath at 37 °C for 40 min. Control incubations were performed in the absence of NADPH which was replaced with Tris–HCl. The reactions were terminated by addition of 40-µl ice-cold acetonitrile. Samples were kept on ice for at least 20 min and then centrifuged at 18,000g for 5 min at 4 °C to precipitate microsomal proteins.
Vmax and Km were obtained by fitting the data to Eq. (2) in GraphPad Prism 5.0 (GraphPad Software Inc.). Data were collected from three independent experiments and each data point is presented as the mean value ± SD.

[2] = test system: QTc interval in the human ECG; assay: PBK modeling-based reverse dosimetry and BMD analysis of predicted QTc dose-response; details: 70 kg
Experimental: Based on this consideration, PBK modeling-based reverse dosimetry was applied to translate in vitro concentration–response data on FPDc obtained from the hiPSC-CM using the MEA to in vivo dose–response curves for QTc. […] The same procedure was performed for each of the in vitro concentrations tested in the MEA. Thus, the entire in vitro concentration–response curve was translated to a predicted in vivo dose–response curve.
The benchmark response (BMR) was defined as a 10% change compared to the control. […] In short, the continuous data from the predicted in vivo dose–response curves were fitted to a set of models including the Exponential, Hill, Inverse Exponential, and the Log-Normal Family models. […] Weighting was based on the model’s Akaike's Information Criterion (AIC) values where models with lower AIC values get a larger weight. 200 bootstrap data sets were run to calculate the final BMD confidence intervals from model averaging.

CCC(=O)C(CC(C)N(C)C)(c1ccccc1)c1ccccc1 (stereo not shown) [methadone]
Km at 40 min ([1]; human): 275 ± 26.8 µM
EMDP formation from methadone ([1]; methadone as substrate): No EMDP formation was measured
BMDL10 ([2]; fu,p 0.034, model averaging): 109 mg/day
BMDU10 ([2]; fu,p 0.034, model averaging): 509 mg/day
BMDL10 ([2]; fu,p 0.055, model averaging): 66.7 mg/day
BMDU10 ([2]; fu,p 0.055, model averaging): 316 mg/day
BMDL10 ([2]; fu,p 0.15, model averaging): 24.2 mg/day
BMDU10 ([2]; fu,p 0.15, model averaging): 117 mg/day
BMDL10 ([2]; fu,p 0.22, model averaging): 16.5 mg/day
BMDU10 ([2]; fu,p 0.22, model averaging): 79.5 mg/day
